Results taken from US10738028B2, “Spiro three-membered ring, spiro five-membered ring peptide deformylase inhibitor and use thereof in antibacteria and anti-tumor” (priority 2016, dated 2020).

Legend:
Format in all cases: cell-based
[1] = test system: HCT-116 colorectal cancer cell line; assay: CCK-8 proliferation inhibition; conditions: Homo sapiens, HCT-116, 72 h, concentration of 30 μM; 72 hours; CCK-8; read-out: HCT116 inhibition rate/%
Summary of the method: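 Growth inhibition is read by CCK-8 (1:10 dilution) after 72 h of compound exposure. HCT-116 cells grow in McCoy's 5A containing 10% newborn bovine serum at 2000 cells/well, with 1‰ DMSO as vehicle control.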

[2] = test system: Enterococcus faecalis (EFA); assay: MIC, two-fold agar dilution (CLSI), clinical isolates
Source text: (§1) 1. The invention adopts the two-fold agar dilution method recommended by the operating procedure of antimicrobial susceptibility testing set by American Clinical and Laboratory Standards Institute (CLSI) to determine the Minimum Inhibitory Concentration (MIC) of the test samples against the tested strains.

[3] = test system: methicillin-resistant Staphylococcus aureus (MRSA); assay: as above
Source text: as §1

[4] = test system: methicillin-sensitive Staphylococcus epidermidis (MSSE); assay: as above
Source text: as §1

[5] = test system: methicillin-sensitive Staphylococcus aureus (MSSA); assay: as above
Source text: as §1

[6] = test system: Streptococcus pneoumoniae (SPN); assay: as above
Source text: as §1

[7] = test system: methicillin-resistant Staphylococcus epidermidis (MRSE); assay: as above
Source text: as §1

[8] = test system: Enterococcus faecium (EFM); assay: as above
Source text: as §1

[9] = test system: Moraxella catarrhalis (BCA); assay: as above
Source text: as §1

[10] = test system: Escherichia coli (including ESBLs, non-ESBLs); assay: as above
Source text: as §1

O=CN(O)C[C@@H](CC1CCCC1)C(=O)N1CC2(CC2)C[C@H]1C(=O)Nc1nncs1 [Example 41, (S)-5-((R)-3-cyclopentyl-2-((N-hydroxyformamido)methyl)propionyl)-N-(1,3,4-thiadiazol-2-yl)-5-azaspiro[2.4]heptane-6-carboxamide]
inhibition at 30 µM [1]: 24%
Anti-bacterial activity (MIC), strain EFA 15-1 ([2]; clinical isolate EFA 15-1): 4 µg/mL
Anti-bacterial activity (MIC), strain EFA 15-2 ([2]; clinical isolate EFA 15-2): 4 µg/mL
Anti-bacterial activity (MIC), strain EFA 15-3 ([2]; clinical isolate EFA 15-3): 1 µg/mL
Anti-bacterial activity (MIC), strain EFA 15-4 ([2]; clinical isolate EFA 15-4): 4 µg/mL
Anti-bacterial activity (MIC), strain EFA 15-5 ([2]; clinical isolate EFA 15-5): 4 µg/mL
Anti-bacterial activity (MIC), strain EFA 15-6 ([2]; clinical isolate EFA 15-6): 4 µg/mL
Anti-bacterial activity (MIC), strain EFA 15-9 ([2]; clinical isolate EFA 15-9): 4 µg/mL
Anti-bacterial activity (MIC), strain MRSA 15-1 ([3]; clinical isolate MRSA 15-1): 0.5 µg/mL
Anti-bacterial activity (MIC), strain MRSA 15-2 ([3]; clinical isolate MRSA 15-2): 1 µg/mL
Anti-bacterial activity (MIC), strain MRSA 15-3 ([3]; clinical isolate MRSA 15-3): 0.5 µg/mL
Anti-bacterial activity (MIC), strain MRSA 15-4 ([3]; clinical isolate MRSA 15-4): 1 µg/mL
Anti-bacterial activity (MIC), strain MSSE 15-3 ([4]; clinical isolate MSSE 15-3): 1 µg/mL
Anti-bacterial activity (MIC), strain MSSE 15-4 ([4]; clinical isolate MSSE 15-4): 1 µg/mL
Anti-bacterial activity (MIC), strain MSSE 15-5 ([4]; clinical isolate MSSE 15-5): 1 µg/mL
Anti-bacterial activity (MIC), strain MSSE 15-6 ([4]; clinical isolate MSSE 15-6): 1 µg/mL
Anti-bacterial activity (MIC), strain MSSA 15-3 ([5]; clinical isolate MSSA 15-3): 1 µg/mL
Anti-bacterial activity (MIC), strain MSSA 15-4 ([5]; clinical isolate MSSA 15-4): 0.5 µg/mL
Anti-bacterial activity (MIC), strain MSSA 15-5 ([5]; clinical isolate MSSA 15-5): 0.5 µg/mL
Anti-bacterial activity (MIC), strain MSSA 15-6 ([5]; clinical isolate MSSA 15-6): 0.5 µg/mL
Anti-bacterial activity (MIC), strain SPN 16-2 ([6]; clinical isolate SPN 16-2): 0.25 µg/mL
Anti-bacterial activity (MIC), strain SPN 16-4 ([6]; clinical isolate SPN 16-4): 4 µg/mL
Anti-bacterial activity (MIC), strain MRSE 15-1 ([7]; clinical isolate MRSE 15-1): 0.5 µg/mL
Anti-bacterial activity (MIC), strain MRSE 15-2 ([7]; clinical isolate MRSE 15-2): 1 µg/mL
Anti-bacterial activity (MIC), strain MRSE 15-3 ([7]; clinical isolate MRSE 15-3): 1 µg/mL
Anti-bacterial activity (MIC), strain MRSE 15-7 ([7]; clinical isolate MRSE 15-7): 1 µg/mL
Anti-bacterial activity (MIC), strain EFM 15-1 ([8]; clinical isolate EFM 15-1): 1 µg/mL
Anti-bacterial activity (MIC), strain EFM 15-2 ([8]; clinical isolate EFM 15-2): 2 µg/mL
Anti-bacterial activity (MIC), strain EFM 15-3 ([8]; clinical isolate EFM 15-3): 0.25 µg/mL
Anti-bacterial activity (MIC), strain EFM 15-4 ([8]; clinical isolate EFM 15-4): 1 µg/mL
Anti-bacterial activity (MIC), strain EFM 15-5 ([8]; clinical isolate EFM 15-5): 1 µg/mL
Anti-bacterial activity (MIC), strain EFM 15-6 ([8]; clinical isolate EFM 15-6): 2 µg/mL
Anti-bacterial activity (MIC), strain BCA 14-1 ([9]; clinical isolate BCA 14-1): 1 µg/mL
Anti-bacterial activity (MIC), strain BCA 14-4 ([9]; clinical isolate BCA 14-4): 2 µg/mL
Anti-bacterial activity (MIC), strain BCA 14-5 ([9]; clinical isolate BCA 14-5): 0.25 µg/mL
Anti-bacterial activity (MIC), strain BCA 14-6 ([9]; clinical isolate BCA 14-6): 4 µg/mL
Anti-bacterial activity (MIC), strain BCA 14-7 ([9]; clinical isolate BCA 14-7): 1 µg/mL
Anti-bacterial activity (MIC), strain BCA 14-8 ([9]; clinical isolate BCA 14-8): 4 µg/mL
Anti-bacterial activity (MIC), strain BCA 14-10 ([9]; clinical isolate BCA 14-10): 0.5 µg/mL
Anti-bacterial activity (MIC), strain ECO+ 15-1 ([10]; clinical isolate ECO+ 15-1): 32 µg/mL
Anti-bacterial activity (MIC), strain ECO+ 15-2 ([10]; clinical isolate ECO+ 15-2): 32 µg/mL
Anti-bacterial activity (MIC), strain ECO+ 15-3 ([10]; clinical isolate ECO+ 15-3): 32 µg/mL
Anti-bacterial activity (MIC), strain ECO+ 15-4 ([10]; clinical isolate ECO+ 15-4): 32 µg/mL
Anti-bacterial activity (MIC), strain ECO− 15-1 ([10]; clinical isolate ECO− 15-1): 32 µg/mL
Anti-bacterial activity (MIC), strain ECO− 15-2 ([10]; clinical isolate ECO− 15-2): 32 µg/mL
Anti-bacterial activity (MIC), strain ECO− 15-3 ([10]; clinical isolate ECO− 15-3): 32 µg/mL
Anti-bacterial activity (MIC), strain ECO− 15-4 ([10]; clinical isolate ECO− 15-4): 32 µg/mL
